target: T1, EBP (Homo sapiens, UniProt Q15125); assay: EBP Functional Assay (EBP immunoaffinity LC-MS assay); type: biochemical; details: HEK293T cells as source of EBP enzyme; 30 min with inhibitor, then zymosterol-d5, 37° C. for 4 h; percent conversion by LC-APCI MRM MS
T1 construct: HEK293T cells were utilized as the source of EBP enzyme; endogenous in cells; host or cells: HEK293T
Protocol: The EBP immunoaffinity (IA) LC-MS assay measures the potency of small molecule inhibitors of EBP by quantifying their concentration-dependent changes in the enzyme's substrate and product using liquid chromatography atmospheric pressure chemical ionization multiple reaction monitoring mass spectrometry (LC-APCI MRM MS). HEK293T cells were utilized as the source of EBP enzyme. The enzyme was incubated with the small molecule inhibitors at variable concentrations for 30 min. Deuterated form of EBP substrate, zymosterol-d5 (Avanti Polar Lipids, Cat #700068P-1 mg), was then added and the plate was incubated at 37° C. for 4 h. Finally, the sterol isomers were extracted and injected to LC-APCI MRM MS. MRM transition used for the quantification for both zymosterol and dihydrolathosterol (substrate and product of EBP enzymatic reaction, respectively) is 372.3-203.2, CE 30 and DP 80 in positive ion mode. Percent conversion of the zymosterol-d5 to dehydrolathosterol-d5 was used to derive IC50 curves. Tasin-1 (1′-[(4-Methoxyphenyl)sulfonyl]-4-methyl-1,4′-bipiperidine, CAS 792927-06-1) was used as the reference small molecule inhibitor. Percent conversion versus the compound concentration data were fit to the following 4-parameter logistic model to generate IC50 curves: […]

T1 sequence (Q15125 whole entry): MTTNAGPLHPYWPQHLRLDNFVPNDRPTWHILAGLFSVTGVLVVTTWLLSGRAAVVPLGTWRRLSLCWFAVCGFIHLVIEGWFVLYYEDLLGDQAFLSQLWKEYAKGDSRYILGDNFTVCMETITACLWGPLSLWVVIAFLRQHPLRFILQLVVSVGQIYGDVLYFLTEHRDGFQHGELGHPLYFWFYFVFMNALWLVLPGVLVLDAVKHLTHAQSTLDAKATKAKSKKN

Row | Compound | IC50
1 | CC1CCN([C@H]2C[C@H]3CC[C@@H](C2)N3S(=O)(=O)c2ccc(OC(F)F)cc2)CC1 [Example 20, (1R,3r,5S)-8-((4-(difluoromethoxy)phenyl)sulfonyl)-3-(4-methylpiperidin-1-yl)-8-azabicyclo[3.2.1]octane] | < 50 nM
2 | CC1CCN([C@@H]2C[C@H]3CC[C@@H](C2)N3S(=O)(=O)c2ccc(OC(F)F)cc2)CC1 [Example 21, (1R,3s,5S)-8-((4-(difluoromethoxy)phenyl)sulfonyl)-3-(4-methylpiperidin-1-yl)-8-azabicyclo[3.2.1]octane] | < 50 nM
3 | CC1(CN[C@@H]2C[C@H]3CC[C@@H](C2)N3S(=O)(=O)c2ccc(OC(F)F)cc2)COC1 [Example 28, (1R,3s,5S)-8-((4-(Difluoromethoxy)phenyl)sulfonyl)-N-((3-methyloxetan-3-yl)methyl)-8-azabicyclo[3.2.1]octan-3-amine] | < 50 nM
4 | O=S(=O)(c1ccc(OC(F)F)cc1)N1[C@@H]2CC[C@H]1C[C@H](NCC1CCOCC1)C2 [Example 29, (1R,3s,5S)-8-((4-(Difluoromethoxy)phenyl)sulfonyl)-N-((tetrahydro-2H-pyran-4-yl)methyl)-8-azabicyclo[3.2.1]octan-3-amine] | < 50 nM
5 | CC12CC(NC3CC4CCC(C3)N4S(=O)(=O)c3ccc(OC(F)F)cc3)(CO1)C2 (stereo not shown) [Example 30, 8-((4-(Difluoromethoxy)phenyl)sulfonyl)-N-(1-methyl-2-oxabicyclo[2.1.1]hexan-4-yl)-8-azabicyclo[3.2.1]octan-3-amine] | < 50 nM
6 | O=S(=O)(c1ccc(OC(F)F)cc1)N1[C@@H]2CC[C@H]1C[C@H](NCC1COC1)C2 [Example 31, (1R,3s,5S)-8-((4-(Difluoromethoxy)phenyl)sulfonyl)-N-(oxetan-3-ylmethyl)-8-azabicyclo[3.2.1]octan-3-amine] | < 50 nM
7 | O=S(=O)(c1ccc(OC(F)F)cc1)N1[C@@H]2CC[C@H]1C[C@@H](NCC1CCOCC1)C2 [Example 32, (1R,3r,5S)-8-((4-(Difluoromethoxy)phenyl)sulfonyl)-N-((tetrahydro-2H-pyran-4-yl)methyl)-8-azabicyclo[3.2.1]octan-3-amine] | < 50 nM
8 | O=S(=O)(c1ccc(OC(F)F)cc1)N1[C@@H]2CC[C@H]1C[C@](O)(CN1CCOCC1)C2 [Example 33, (1R,3r,5S)-8-((4-(Difluoromethoxy)phenyl)sulfonyl)-3-(morpholinomethyl)-8-azabicyclo[3.2.1]octan-3-ol] | < 50 nM
9 | O=S(=O)(c1ccc(OC(F)F)cc1)N1[C@@H]2CC[C@H]1C[C@@](O)(CN1CCOCC1)C2 [Example 34, (1R,3s,5S)-8-((4-(Difluoromethoxy)phenyl)sulfonyl)-3-(morpholinomethyl)-8-azabicyclo[3.2.1]octan-3-ol] | 50 to 150 nM
10 | O=S(=O)(c1c(F)cc(OC(F)F)cc1F)N1[C@@H]2CC[C@H]1C[C@H](CN1CCOCC1)C2 [Example 35, 4-(((1R,3s,5S)-8-((4-(Difluoromethoxy)-2,6-difluorophenyl)sulfonyl)-8-azabicyclo[3.2.1]octan-3-yl)methyl)morpholine] | < 50 nM
11 | Cc1cc(S(=O)(=O)N2[C@@H]3CC[C@H]2C[C@H](CN2CCOCC2)C3)n(C)n1 [Example 36, 4-(((1R,3s,5S)-8-((1,3-Dimethyl-1H-pyrazol-5-yl)sulfonyl)-8-azabicyclo[3.2.1]octan-3-yl)methyl)morpholine] | < 50 nM
12 | Cc1cc(S(=O)(=O)N2[C@@H]3CC[C@H]2C[C@@H](CN2CCOCC2)C3)n(C)n1 [Example 37, 4-(((1R,3r,5S)-8-((1,3-Dimethyl-1H-pyrazol-5-yl)sulfonyl)-8-azabicyclo[3.2.1]octan-3-yl)methyl)morpholine] | < 50 nM
13 | Cc1noc(C)c1S(=O)(=O)N1[C@@H]2CC[C@H]1C[C@H](CN1CCOCC1)C2 [Example 38, 4-(((1R,3s,5S)-8-((3,5-Dimethylisoxazol-4-yl)sulfonyl)-8-azabicyclo[3.2.1]octan-3-yl)methyl)morpholine] | < 50 nM
14 | Cc1cc(C)c(S(=O)(=O)N2[C@@H]3CC[C@H]2C[C@H](CN2CCOCC2)C3)cn1 [Example 39, 4-(((1R,3s,5S)-8-((4,6-Dimethylpyridin-3-yl)sulfonyl)-8-azabicyclo[3.2.1]octan-3-yl)methyl)morpholine] | 50 to 150 nM
15 | Cc1ccnc(-n2cc(S(=O)(=O)N3[C@@H]4CC[C@H]3C[C@@H](N3CCC(C)CC3)C4)cn2)c1 [Example 40, (1R,3r,5S)-3-(4-methylpiperidin-1-yl)-8-((1-(4-methylpyridin-2-yl)-1H-pyrazol-4-yl)sulfonyl)-8-azabicyclo[3.2.1]octane] | 150 to 2000 nM
16 | Cc1ccnc(-n2cc(S(=O)(=O)N3[C@@H]4CC[C@H]3C[C@H](N3CCC(C)CC3)C4)cn2)c1 [Example 41, (1R,3s,5S)-3-(4-Methylpiperidin-1-yl)-8-((1-(4-methylpyridin-2-yl)-1H-pyrazol-4-yl)sulfonyl)-8-azabicyclo[3.2.1]octane] | < 50 nM

Row | Compound | IC50
17 | CC1CCN([C@@H]2C[C@H]3CC[C@@H](C2)N3S(=O)(=O)c2csc(C(F)(F)F)n2)CC1 [Example 42, 4-(((1R,3s,5S)-3-(4-Methylpiperidin-1-yl)-8-azabicyclo[3.2.1]octan-8-yl)sulfonyl)-2-(trifluoromethyl)thiazole] | 150 to 2000 nM
18 | COc1cc(F)c(S(=O)(=O)N2[C@@H]3CC[C@H]2C[C@H](N2CCC(C)CC2)C3)c(F)c1 [Example 43, (1R,3s,5S)-8-((2,6-Difluoro-4-methoxyphenyl)sulfonyl)-3-(4-methylpiperidin-1-yl)-8-azabicyclo[3.2.1]octane] | 50 to 150 nM
19 | CC1CCN([C@@H]2C[C@H]3CC[C@@H](C2)N3S(=O)(=O)c2cn(-c3ccccc3)nn2)CC1 [Example 44, (1R,3s,5S)-3-(4-Methylpiperidin-1-yl)-8-((1-phenyl-1H-1,2,3-triazol-4-yl)sulfonyl)-8-azabicyclo[3.2.1]octane] | 150 to 2000 nM
20 | Cc1nn(C)c2ncc(S(=O)(=O)N3[C@@H]4CC[C@H]3C[C@H](N3CCC(C)CC3)C4)cc12 [Example 45, 1,3-Dimethyl-5-(((1R,3s,5S)-3-(4-methylpiperidin-1-yl)-8-azabicyclo[3.2.1]octan-8-yl)sulfonyl)-1H-pyrazolo[3,4-b]pyridine] | 150 to 2000 nM
21 | Cc1cnc(S(=O)(=O)N2[C@@H]3CC[C@H]2C[C@H](N2CCC(C)CC2)C3)c(C)c1 [Example 46, (1R,3s,5S)-8-((3,5-Dimethylpyridin-2-yl)sulfonyl)-3-(4-methylpiperidin-1-yl)-8-azabicyclo[3.2.1]octane] | 150 to 2000 nM
22 | Cc1ccc(S(=O)(=O)N2[C@@H]3CC[C@H]2C[C@H](N2CCC(C)CC2)C3)c(C)n1 [Example 47, (1R,3s,5S)-8-((2,6-Dimethylpyridin-3-yl)sulfonyl)-3-(4-methylpiperidin-1-yl)-8-azabicyclo[3.2.1]octane] | 50 to 150 nM
23 | CC(O)CNC1CC2CCC(C1)N2S(=O)(=O)c1ccc(OC(F)F)cc1 (stereo not shown) [Example 48, 1-((8-((4-(Difluoromethoxy)phenyl)sulfonyl)-8-azabicyclo[3.2.1]octan-3-yl)amino)propan-2-ol] | 150 to 2000 nM
24 | CC1(O)CCN(C2CC3CCC(C2)N3S(=O)(=O)c2ccc(OC(F)F)cc2)C1 (stereo not shown) [Example 49, 1-(8-((4-(Difluoromethoxy)phenyl)sulfonyl)-8-azabicyclo[3.2.1]octan-3-yl)-3-methylpyrrolidin-3-ol] | 50 to 150 nM
25 | COC1CCN(C2CC3CCC(C2)N3S(=O)(=O)c2ccc(OC(F)F)cc2)C1 (stereo not shown) [Example 50, 8-((4-(Difluoromethoxy)phenyl)sulfonyl)-3-(3-methoxypyrrolidin-1-yl)-8-azabicyclo[3.2.1]octane] | 50 to 150 nM
26 | O=S(=O)(c1ccc(OC(F)F)cc1)N1C2CCC1CC(N1CCC3(COC3)C1)C2 (stereo not shown) [Example 51, 6-(8-((4-(Difluoromethoxy)phenyl)sulfonyl)-8-azabicyclo[3.2.1]octan-3-yl)-2-oxa-6-azaspiro[3.4]octane] | 150 to 2000 nM
27 | COCCC(C)NC1CC2CCC(C1)N2S(=O)(=O)c1ccc(OC(F)F)cc1 (stereo not shown) [Example 52, 8-((4-(Difluoromethoxy)phenyl)sulfonyl)-N-(4-methoxybutan-2-yl)-8-azabicyclo[3.2.1]octan-3-amine] | < 50 nM
28 | O=S(=O)(c1ccc(OC(F)F)cc1)N1C2CCC1CC(N1C3CCCC1CC3)C2 (stereo not shown) [Example 53, 8-((4-(Difluoromethoxy)phenyl)sulfonyl)-8,8′-diaza-3,8′-bi(bicyclo[3.2.1]octane)] | 50 to 150 nM
29 | COCCC1CN(C2CC3CCC(C2)N3S(=O)(=O)c2ccc(OC(F)F)cc2)C1 (stereo not shown) [Example 54, 8-((4-(Difluoromethoxy)phenyl)sulfonyl)-3-(3-(2-methoxyethyl)azetidin-1-yl)-8-azabicyclo[3.2.1]octane] | 150 to 2000 nM
30 | COC(C)C(C)NC1CC2CCC(C1)N2S(=O)(=O)c1ccc(OC(F)F)cc1 (stereo not shown) [Example 55, 8-((4-(Difluoromethoxy)phenyl)sulfonyl)-N-(3-methoxybutan-2-yl)-8-azabicyclo[3.2.1]octan-3-amine] | < 50 nM
31 | O=S(=O)(c1ccc(OC(F)F)cc1)N1C2CCC1CC(N1CC3CC(C3)C1)C2 (stereo not shown) [Example 57, 3-(8-((4-(Difluoromethoxy)phenyl)sulfonyl)-8-azabicyclo[3.2.1]octan-3-yl)-3-azabicyclo[3.1.1]heptane] | 50 to 150 nM

From patent publication US20250161281A1, “EMOPAMIL-BINDING PROTEIN INHIBITORS AND USES THEREOF” (BIOGEN MA INC., priority 2022, published 2025)
